Data published in patent publication US20230053540A1, “TREATMENT OF LIVER INJURY” (Massachusetts Institute of Technology, priority 2019, published 2023).

System: hepatocytes
Assay: Seq-Well scRNA-Seq of hepatocytes after APAP overdose (signature scores, DEG vs untreated)
Type: in vivo, mouse
Settings: A24 vs untreated (UT)

SMILES: CC(=O)Nc1ccc(O)cc1 [APAP, acetaminophen]
- avg_logFC Ces3a: −0.3687
- avg_logFC Ces1d: −0.4289
- avg_logFC Cfh: 0.4009
- avg_logFC Cfi: 0.2516
- avg_logFC Chchd2: −0.3949
- avg_logFC Clpx: −0.4047
- avg_logFC Cltc: 0.4381
- avg_logFC Cmah: 0.3616
- avg_logFC Cmbl: −0.3124
- avg_logFC Cml1: −0.3269
- avg_logFC Cml2: 0.2654
- avg_logFC Copa: 0.3451
- avg_logFC Cox4i1: −0.4542
- avg_logFC Cox5b: −0.3378
- avg_logFC Cox6c: −0.5028
- avg_logFC Cox7a2: −0.3635
- avg_logFC Cp: 0.3174
- avg_logFC Cpb2: 0.3222
- avg_logFC Cps1: 0.3245
- avg_logFC Creld2: 0.6087
- avg_logFC Csad: −0.5313
- avg_logFC Csde1: 0.3269
- avg_logFC Cth: −0.5109
- avg_logFC Ctsc: 0.3004
- avg_logFC Cxcl1: 0.4498
- avg_logFC Cyb5: −0.7048
- avg_logFC Cyb5r3: 0.339
- avg_logFC Cyp4a10: −0.7422
- avg_logFC Dcxr: −0.4107
- avg_logFC Ddt: −0.4224
- avg_logFC Dhcr24: 0.4238
- avg_logFC Dnajc3: 0.4564
- avg_logFC Dnajc12: 0.3221
- avg_logFC Dstn: 0.3243
- avg_logFC Ech1: −0.4291
- avg_logFC Eef1a1: 0.4393
- avg_logFC Eef2: 0.2701
- avg_logFC Efna1: 0.3361
- avg_logFC Egfr: 0.505
- avg_logFC Eif4g1: 0.3108
- avg_logFC Eif4g2: 0.466
- avg_logFC Elovl2: 0.4522
- avg_logFC Elovl3: −0.676
- avg_logFC Ephx2: −0.3693
- avg_logFC Etnk1: 0.3521
- avg_logFC Etnppl: −0.4283
- avg_logFC Fabp2: −0.3922
- avg_logFC Fdx1: −0.3447
- avg_logFC Fga: 0.8285
- avg_logFC Fgb: 0.745
- avg_logFC Fgg: 0.6805
- avg_logFC Fgl1: 0.8649
- avg_logFC Fn1: 0.6996
- avg_logFC Fndc3b: 0.3485
- avg_logFC Fos: 0.432
- avg_logFC Fxyd1: −0.3118
- avg_logFC Gadd45g: −0.614
- avg_logFC Gas5: −0.3362
- avg_logFC Gchfr: −0.3869
- avg_logFC Gjb2: 0.3911
- avg_logFC Glud1: 0.451
- avg_logFC Gm4076: −0.3255
- avg_logFC Gm5096: −0.3631
- avg_logFC Gm13775: −1.032
- avg_logFC Gm15564: 1.821
- avg_logFC Gm24270: 0.268
- avg_logFC Gm24601: 0.9844
- avg_logFC Gm26917: 0.8237
- avg_logFC Gm26924: 1.419
- avg_logFC Gnmt: −0.4604
- avg_logFC Gpx1: −0.508
- avg_logFC Grip2: 0.8779
- avg_logFC Gsta3: −0.6694
- avg_logFC Hamp: −0.8261
- avg_logFC Hao1: 0.323
- avg_logFC Hbb-bs: 1.043
- avg_logFC Hc: 0.3679
- avg_logFC Hdlbp: 0.5651
- avg_logFC Hint1: −0.4737
- avg_logFC Hint2: −0.3702
- avg_logFC Hmgcs2: −0.3173
- avg_logFC Hnf4a: 0.4549
- avg_logFC Hook1: 0.3274
- avg_logFC Hp: 0.4313
- avg_logFC Hpd: −0.3133
- avg_logFC Hs3st3b1: 0.343
- avg_logFC Hsd3b7: −0.3953
- avg_logFC Hsp90b1: 0.5342
- avg_logFC Hspa5: 0.6105
- avg_logFC Hspa8: −0.36
- avg_logFC Hspa13: 0.3548
- avg_logFC Hyou1: 0.8465
- avg_logFC Ibtk: 0.3311
- avg_logFC Igfbp1: −0.3162
- avg_logFC Igfbp2: −0.3451
- avg_logFC Iigp1: 0.4542
- avg_logFC Il6st: 0.3335
- avg_logFC Il13ra1: 0.303
- avg_logFC Inmt: −0.4435
- avg_logFC Insig1: 0.4655
- avg_logFC Ipo7: 0.2592
- avg_logFC Itih2: 0.2987
- avg_logFC Itih3: 0.4929
- avg_logFC Itih4: 0.5251
- avg_logFC Khk: −0.2976
- avg_logFC Kmo: 0.3022
- avg_logFC Kng1: 0.2658
- avg_logFC Lars2: 1.711
- avg_logFC Lman1: 0.2986
- avg_logFC Lpgat1: 0.3946
- avg_logFC Lrg1: 0.4368
- avg_logFC Lrp1: 0.5051
- avg_logFC Lrrc59: 0.3181
- avg_logFC Manf: 0.4689
- avg_logFC Mlec: 0.3246
- avg_logFC Mpc1: −0.2818
- avg_logFC Mtus1: 0.3621
- avg_logFC Mug2: 0.3704
- avg_logFC Mup3: −0.8062
- avg_logFC Mup4: −1.087
- avg_logFC Mup5: −1.371
- avg_logFC Mup6: −1.678
- avg_logFC Mup8: −0.6133
- avg_logFC Mup9: −1.847
- avg_logFC Mup11: −1.611
- avg_logFC Mup13: −0.6949
- avg_logFC Mup15: −1.235
- avg_logFC Mup16: −1.019
- avg_logFC Mup17: −1.8
- avg_logFC Mup18: −1.727
- avg_logFC Mup19: −1.699
- avg_logFC Mup20: −0.2819
- avg_logFC Mup21: −0.6977
- avg_logFC Myh9: 0.6391
- avg_logFC Nab1: 0.3342
- avg_logFC Nars: 0.3532
- avg_logFC Ndufa4: −0.4433
- avg_logFC Ndufb2: −0.3412
- avg_logFC Ndufb4: −0.3251
- avg_logFC Ndufb11: −0.4275
- avg_logFC Ndufs6: −0.3592
- avg_logFC Nedd4: 0.3774
- avg_logFC Nr1d2: 0.4306
- avg_logFC Nr5a2: 0.322
- avg_logFC Oat: −0.5212
- avg_logFC Oaz1: −0.3748
- avg_logFC Orm1: 0.3651
- avg_logFC Orm2: 0.2715
- avg_logFC P4hb: 0.4052
- avg_logFC Pdcd4: 0.4882
- avg_logFC Pdia3: 0.5938
- avg_logFC Pdia4: 0.4882
- avg_logFC Pdia6: 0.3365
- avg_logFC Pgrmc1: 0.3502
- avg_logFC Plg: 0.2617
- avg_logFC Pon1: −0.3227
- avg_logFC Prdx1: −0.2677
- avg_logFC Prg4: 0.4306
- avg_logFC Prkd3: 0.3665
- avg_logFC Pten: 0.3559
- avg_logFC Pzp: 0.416
- avg_logFC Qsox1: 0.3424
- avg_logFC Rab1: 0.3526
- avg_logFC Rdh7: −0.269
- avg_logFC Rdx: 0.3736
- avg_logFC Retsat: −0.3658
- avg_logFC Rnase4: 0.5178
- avg_logFC Rpn1: 0.4124
- avg_logFC Rps2: −0.3845
- avg_logFC Rps27l: −0.5485
- avg_logFC Rrbp1: 0.3069
- avg_logFC Rsp14: −0.2923
- avg_logFC S100a1: −0.3762
- avg_logFC Saa1: 0.5582
- avg_logFC Saa2: 0.9645
- avg_logFC Saa4: 0.3755
- avg_logFC Sar1b: −0.3176
- avg_logFC Sc5d: 0.345
- avg_logFC Scd1: 0.7267
- avg_logFC Sds: −0.407
- avg_logFC Sec61a1: 0.3139
- avg_logFC Sel1l: 0.336
- avg_logFC Selenbp2: −0.3833
- avg_logFC Sephs2: 0.89
- avg_logFC Sepp1: 0.4486
- avg_logFC Serp1: 0.3124
- avg_logFC Serpina1a: −0.6752
- avg_logFC Serpina1b: −0.3018
- avg_logFC Serpina1c: −0.4026
- avg_logFC Serpina1e: −0.2843
- avg_logFC Serpina3c: −0.4089
- avg_logFC Serpina3n: 0.4137
- avg_logFC Serpina10: 0.565
- avg_logFC Serpina1d: −0.494
- avg_logFC Slc3a1: 0.341
- avg_logFC Slc7a2: 0.3526
- avg_logFC Slc38a4: 0.2637
- avg_logFC Snord118: 0.3914
- avg_logFC Sod1: −0.3036
- avg_logFC Sparcl1: −0.2536
- avg_logFC Spcs3: 0.3942
- avg_logFC Ssr1: 0.3278
